According to patent publication US9382204B2, “Inhibitors targeting the DNA-binding domain of human STAT3 for treatment of metastatic cancers” (Indiana University Research and Technology Corporation, priority 2013, dated 2016):

Test system: STAT3
Assay: STAT3-dependent luciferase reporter assay in MDA-MB-231-STAT3 stable cells
Assay type: cell-based, human
Settings: 20 μM; for Rel. luciferase activity (%) 1: experiment 1, relative to DMSO; for Rel. luciferase activity (%) 2: experiment 2, relative to DMSO; for Rel. luciferase activity (%) 3: experiment 3, relative to DMSO; for Rel. luciferase activity (%) Mean: mean of experiments, relative to DMSO; for inhibition of luciferase expression compared to DMSO vehicle control: significant = p value less than 0.05
Protocol: FIG. 12. Identification of active inS3-54 analogues. (A) Effects of inS3-54 analogues on STAT3-dependent luciferase expression. MDA-MB-231 cells with stable STAT3-dependent luciferase expression were treated with DMSO control, 20 μM inSTAT3-54 or its analogues (A1-A79), followed by measurement of luciferase activity. (*p<0.05; **p<0.01; ***p<0.001).
MDA-MB-231-STAT3 stable cell line with high level of STAT3-dependent luciferase expression was exposed to candidate compounds at 20 μM in DMSO for 48 hours based on previous studies, and luciferase activity was measured using a luciferase assay kit (Promega, USA), following manufacturer's instructions. The final DMSO concentration in this and following assays was 0.1% (vol/vol).

SMILES	Rel. luciferase activity (%) 1	Rel. luciferase activity (%) 2	Rel. luciferase activity (%) 3	Rel. luciferase activity (%) Mean	inhibition of luciferase expression compared to DMSO vehicle control
CCN(CC)c1ccc(N2C(=O)C(=Cc3ccc([N+](=O)[O-])cc3)C=C2c2ccccc2)cc1 [Compound A45]	60.9%	89.3%	71.6%	73.9%	significantly inhibited
Cc1ccc(N2C(=O)C(=Cc3ccc(-c4cc(Cl)ccc4Cl)o3)C=C2c2ccccc2)cc1[N+](=O)[O-] [Compound A3]	116.7%	104.0%	101.3%	107.3%	–
O=C1C(=Cc2ccc([N+](=O)[O-])cc2)C=C(c2ccccc2)N1c1ccc(Cl)cc1 [Compound A31]	122.8%	124.5%	49.9%	99.1%	–
COC(=O)c1ccc(N2C(=O)C(=Cc3ccc(Cl)cc3)C=C2c2ccccc2)cc1 [Compound A23]	99.2%	103.2%	69.4%	90.6%	–
O=C1C(=Cc2ccc(Cl)cc2)C=C(c2ccccc2)N1c1ccccc1 [Compound A15]	98.4%	99.9%	60.1%	86.1%	–
O=C1C(=Cc2ccc(-c3ccc([N+](=O)[O-])cc3)o2)C=C(c2ccccc2)N1c1ccccc1Cl [Compound A14]	140.4%	129.3%	72.3%	114.0%	–
COC(=O)c1cc(N2C(=O)C(=Cc3ccc(Cl)cc3)C=C2c2ccccc2)ccc1Cl [Compound A66]	90.3%	110.5%	73.6%	91.5%	–
COc1ccc(C=C2C=C(c3ccccc3)N(c3ccc(Cl)c(Cl)c3)C2=O)cc1 [Compound A52]	39.5%	141.9%	77.7%	86.4%	–
COC(=O)c1cccc(N2C(=O)C(=Cc3ccc(OC)cc3)C=C2c2ccccc2)c1 [Compound A50]	168.6%	187.0%	153.6%	169.7%	–
COc1ccc(N2C(=O)C(=Cc3ccc([N+](=O)[O-])cc3)C=C2c2ccccc2)cc1 [Compound A33]	33.8%	92.3%	99.1%	75.1%	–
COc1ccc(C=C2C=C(c3ccccc3)N(c3cccc4ccccc34)C2=O)cc1 [Compound A51]	42.2%	71.0%	56.6%	56.6%	significantly inhibited
CN(C)c1ccc(N2C(=O)C(=Cc3ccc([N+](=O)[O-])cc3)C=C2c2ccccc2)cc1 [Compound A77]	109.7%	103.0%	77.0%	96.6%	–
